Experimental data published in PMC5285354, “Cationic Net Charge and Counter Ion Type as Antimicrobial Activity Determinant Factors of Short Lipopeptides” (Frontiers in Microbiology, 2017).
Values after ≈ are worked out from the molar mass of the structure shown. Where a SMILES comes first, the peptide text is derived from it. The star is where a group is joined. Palmitoyl = CCCCCCCCCCCCCCCC(=O)*; Myristoyl = CCCCCCCCCCCCCC(=O)*

Assays:
Format in all cases: cell-based
[1] = tested on: Aspergillus brasiliensis (ATCC 16404); conditions: ATCC 16404, 48 h
In short: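 Broth microdilution per CLSI: Mueller-Hinton broth, 10^5 cfu/mL inoculum, 18 h at 37°C for bacteria; Sabouraud dextrose broth, 10^3 cfu/mL, 48 h at 25°C for fungi. MIC (μg/mL) is the lowest lipopeptide concentration inhibiting visible growth; MBC/MFC also determined. Triplicate on three days.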

[2] = tested on: Bacillus subtilis (ATCC 6633); conditions: for MIC Bacillus subtillis: ATCC 6633, 18 h; for MBC Bacillus subtillis: ATCC 6633, 24 h
In short: (§1)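 Lowest lipopeptide concentration (μg/mL) with no observable growth gave the MIC, alongside MBC/MFC, by CLSI microbroth dilution. Fungi: Sabouraud dextrose broth, 10^3 cfu/mL start, 25°C for 48 h; bacteria: MH broth, 10^5 cfu/mL, 37°C for 18 h. Run in triplicate, three separate days.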

[3] = tested on: Candida albicans (ATCC 10231); conditions: ATCC 10231, 48 h
In short: (§2)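 MIC in μg/mL, read as the lowest lipopeptide level with no observable growth. Microbroth dilution followed CLSI guidance, using MH broth, 10^5 cfu/mL and 18 h at 37°C for bacterial strains, or Sabouraud Dextrose broth, 10^3 cfu/mL and 48 h at 25°C for yeasts.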

[4] = tested on: Candida tropicalis (PCM 2681); conditions: PCM 2681, 48 h
In short: as §2

[5] = tested on: Enterococcus faecalis (ATCC 29212); conditions: for MBC Enterococcus fecalis, lipopeptides without TFA counter ion / MIC Enterococcus fecalis / MIC Enterococcus fecalis, lipopeptides without TFA counter ion: ATCC 29212, 18 h; for MBC Enterococcus fecalis: ATCC 29212, 24 h
In short: as §1

[6] = tested on: Escherichia coli (ATCC 25922); conditions: for MBC Escherichia coli, lipopeptides without TFA counter ion / MIC Escherichia coli / MIC Escherichia coli, lipopeptides without TFA counter ion: ATCC 25922, 18 h; for MBC Escherichia coli: ATCC 25922, 24 h
In short: as §2

[7] = tested on: Klebsiella pneumoniae (ATCC 700603); conditions: for MBC Klebsiella pneumoniae, lipopeptides without TFA counter ion / MIC Klebsiella pneumoniae / MIC Klebsiella pneumoniae, lipopeptides without TFA counter ion: ATCC 700603, 18 h; for MBC Klebsiella pneumoniae: ATCC 700603, 24 h
In short: as §2

[8] = tested on: Proteus vulgaris (PCM 2668); conditions: 18 h
In short: as §2

[9] = tested on: Pseudomonas aeruginosa (ATCC 9027); conditions: ATCC 9027, 18 h
In short: as §2

[10] = tested on: Staphylococcus aureus (ATCC 25923); conditions: for MBC Staphylococcus aureus, lipopeptides without TFA counter ion / MIC Staphylococcus aureus / MIC Staphylococcus aureus, lipopeptides without TFA counter ion: ATCC 25923, 18 h; for MBC Staphylococcus aureus: ATCC 25923, 24 h
In short: as §2

[11] = tested on: Staphylococcus epidermidis (PCM 2118); conditions: for MIC Staphylococcus epidermidis: PCM 2118, 18 h; for MBC Staphylococcus epidermidis: PCM 2118, 24 h
In short: as §1

[12] = tested on: human red blood cells; conditions: 1 h
In short: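 Washed donor erythrocytes (4% v/v in PBS, EDTA-anticoagulated) incubated with graded lipopeptide concentrations for 1 h at 37 °C; hemoglobin release read at 550 nm in supernatants. Scaled between 0.1% Triton X-100 (100%) and PBS (0%); MHC is the lowest concentration giving 10% hemolysis.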

[13] = tested on: Pseudomonas aeruginosa (ATCC 9027); conditions: ATCC 9027, 24 h
[14] = tested on: Proteus vulgaris (PCM 2668); conditions: 24 h
[15] = tested on: Candida albicans (ATCC 10231)

Compound	MFC Aspergillus brasiliensis [1] [µg/mL]	MIC Aspergillus brasiliensis [1] [µg/mL]	MIC Bacillus subtillis [2] [µg/mL]	MBC Bacillus subtillis [2] [µg/mL]	MFC Candida albicans [3] [µg/mL]	MIC Candida albicans [3] [µg/mL]	MIC Candida albicans, lipopeptides without TFA counter ion [3] [µg/mL]	MFC Candida tropicalis [4] [µg/mL]	MIC Candida tropicalis [4] [µg/mL]	MBC Enterococcus fecalis, lipopeptides without TFA counter ion [5] [µg/mL]	MIC Enterococcus fecalis [5] [µg/mL]	MIC Enterococcus fecalis, lipopeptides without TFA counter ion [5] [µg/mL]	MBC Enterococcus fecalis [5] [µg/mL]	MBC Escherichia coli, lipopeptides without TFA counter ion [6] [µg/mL]	MIC Escherichia coli [6] [µg/mL]	MIC Escherichia coli, lipopeptides without TFA counter ion [6] [µg/mL]	MBC Escherichia coli [6] [µg/mL]	MBC Klebsiella pneumoniae, lipopeptides without TFA counter ion [7] [µg/mL]	MIC Klebsiella pneumoniae [7] [µg/mL]	MIC Klebsiella pneumoniae, lipopeptides without TFA counter ion [7] [µg/mL]	further results
CCCCCCCCCCCCCCCC(=O)N[C@@H](CCCCN)C(=O)NCC(=O)N[C@@H](CCCCN)C(=O)NCC(N)=O [C16-KGKG-NH2] (Palmitoyl-KGKG-NH2)	128 (≈ 205 µM)	128 (≈ 205 µM)	4 (≈ 6.39 µM)	4 (≈ 6.39 µM)	128 (≈ 205 µM)	128 (≈ 205 µM)	128 (≈ 205 µM)	256 (≈ 409 µM)	256 (≈ 409 µM)	16 (≈ 25.6 µM)	16 (≈ 25.6 µM)	16 (≈ 25.6 µM)	16 (≈ 25.6 µM)	8 (≈ 12.8 µM)	16 (≈ 25.6 µM)	8 (≈ 12.8 µM)	16 (≈ 25.6 µM)	32 (≈ 51.1 µM)	16 (≈ 25.6 µM)	16 (≈ 25.6 µM)	MBC Klebsiella pneumoniae [7]: 16 µg/mL (≈ 25.6 µM); MIC Proteus vulgaris [8]: >512 µg/mL; MIC Pseudomonas aeruginosa [9]: 8 µg/mL (≈ 12.8 µM); MBC Staphylococcus aureus, lipopeptides without TFA counter ion [10]: 16 µg/mL (≈ 25.6 µM); MIC Staphylococcus aureus [10]: 16 µg/mL (≈ 25.6 µM); MIC Staphylococcus aureus, lipopeptides without TFA counter ion [10]: 8 µg/mL (≈ 12.8 µM); MBC Staphylococcus aureus [10]: 32 µg/mL (≈ 51.1 µM); MIC Staphylococcus epidermidis [11]: 4 µg/mL (≈ 6.39 µM); MBC Staphylococcus epidermidis [11]: 4 µg/mL (≈ 6.39 µM); Hemolysis HC10 (MHC), concentration of lipopeptide inducing 10% of hemolysis [12]: 64 µg/mL; MBC Pseudomonas aeruginosa [13]: 8 µg/mL (≈ 12.8 µM); MBC Proteus vulgaris [14]: >512 µg/mL; MFC Candida albicans, lipopeptides without TFA counter ion [15]: 128 µg/mL (≈ 205 µM)
CCCCCCCCCCCCCCCC(=O)N[C@@H](CCCCN)C(=O)NCC(=O)N[C@@H](CCCCN)C(N)=O [C16-KGK-NH2] (Palmitoyl-Lys-Gly-Lys-NH2)	128 (≈ 225 µM)	128 (≈ 225 µM)	4 (≈ 7.03 µM)	4 (≈ 7.03 µM)	128 (≈ 225 µM)	128 (≈ 225 µM)	128 (≈ 225 µM)	256 (≈ 450 µM)	256 (≈ 450 µM)	4 (≈ 7.03 µM)	8 (≈ 14.1 µM)	4 (≈ 7.03 µM)	16 (≈ 28.1 µM)	4 (≈ 7.03 µM)	8 (≈ 14.1 µM)	4 (≈ 7.03 µM)	8 (≈ 14.1 µM)	64 (≈ 113 µM)	16 (≈ 28.1 µM)	32 (≈ 56.3 µM)	MBC Klebsiella pneumoniae [7]: 16 µg/mL (≈ 28.1 µM); MIC Proteus vulgaris [8]: >512 µg/mL; MIC Pseudomonas aeruginosa [9]: 16 µg/mL (≈ 28.1 µM); MBC Staphylococcus aureus, lipopeptides without TFA counter ion [10]: 4 µg/mL (≈ 7.03 µM); MIC Staphylococcus aureus [10]: 8 µg/mL (≈ 14.1 µM); MIC Staphylococcus aureus, lipopeptides without TFA counter ion [10]: 4 µg/mL (≈ 7.03 µM); MBC Staphylococcus aureus [10]: 8 µg/mL (≈ 14.1 µM); MIC Staphylococcus epidermidis [11]: 4 µg/mL (≈ 7.03 µM); MBC Staphylococcus epidermidis [11]: 4 µg/mL (≈ 7.03 µM); Hemolysis HC10 (MHC), concentration of lipopeptide inducing 10% of hemolysis [12]: 64 µg/mL; MBC Pseudomonas aeruginosa [13]: 32 µg/mL (≈ 56.3 µM); MBC Proteus vulgaris [14]: >512 µg/mL; MFC Candida albicans, lipopeptides without TFA counter ion [15]: 128 µg/mL (≈ 225 µM)
CCCCCCCCCCCCCCCC(=O)N[C@@H](CCCCN)C(N)=O [C16-K-NH2]	>512	>512	8 (≈ 20.9 µM)	8 (≈ 20.9 µM)	512 (≈ 1330 µM)	512 (≈ 1330 µM)	512 (≈ 1330 µM)	>512	>512	32 (≈ 83.4 µM)	32 (≈ 83.4 µM)	32 (≈ 83.4 µM)	64 (≈ 167 µM)	512 (≈ 1330 µM)	512 (≈ 1330 µM)	512 (≈ 1330 µM)	>512	512 (≈ 1330 µM)	512 (≈ 1330 µM)	512 (≈ 1330 µM)	MBC Klebsiella pneumoniae [7]: >512 µg/mL; MIC Proteus vulgaris [8]: >512 µg/mL; MIC Pseudomonas aeruginosa [9]: 512 µg/mL (≈ 1330 µM); MBC Staphylococcus aureus, lipopeptides without TFA counter ion [10]: 128 µg/mL (≈ 334 µM); MIC Staphylococcus aureus [10]: 512 µg/mL (≈ 1330 µM); MIC Staphylococcus aureus, lipopeptides without TFA counter ion [10]: 128 µg/mL (≈ 334 µM); MBC Staphylococcus aureus [10]: 512 µg/mL (≈ 1330 µM); MIC Staphylococcus epidermidis [11]: 8 µg/mL (≈ 20.9 µM); MBC Staphylococcus epidermidis [11]: 16 µg/mL (≈ 41.7 µM); Hemolysis HC10 (MHC), concentration of lipopeptide inducing 10% of hemolysis [12]: 512 µg/mL; MBC Pseudomonas aeruginosa [13]: >512 µg/mL; MBC Proteus vulgaris [14]: >512 µg/mL; MFC Candida albicans, lipopeptides without TFA counter ion [15]: 512 µg/mL (≈ 1330 µM)
CCCCCCCCCCCCCC(=O)N[C@@H](CCCCN)C(=O)N[C@@H](CCCCN)C(=O)N[C@@H](CCCCN)C(=O)N[C@@H](CCCCN)C(N)=O [C14-KKKK-NH2] (Myristoyl-KKKK-NH2)	64 (≈ 86.5 µM)	64 (≈ 86.5 µM)	4 (≈ 5.4 µM)	4 (≈ 5.4 µM)	128 (≈ 173 µM)	128 (≈ 173 µM)	256 (≈ 346 µM)	128 (≈ 173 µM)	128 (≈ 173 µM)	64 (≈ 86.5 µM)	64 (≈ 86.5 µM)	64 (≈ 86.5 µM)	64 (≈ 86.5 µM)	256 (≈ 346 µM)	256 (≈ 346 µM)	256 (≈ 346 µM)	256 (≈ 346 µM)	128 (≈ 173 µM)	128 (≈ 173 µM)	128 (≈ 173 µM)	MBC Klebsiella pneumoniae [7]: 256 µg/mL (≈ 346 µM); MIC Proteus vulgaris [8]: >512 µg/mL; MIC Pseudomonas aeruginosa [9]: 256 µg/mL (≈ 346 µM); MBC Staphylococcus aureus, lipopeptides without TFA counter ion [10]: 128 µg/mL (≈ 173 µM); MIC Staphylococcus aureus [10]: 128 µg/mL (≈ 173 µM); MIC Staphylococcus aureus, lipopeptides without TFA counter ion [10]: 128 µg/mL (≈ 173 µM); MBC Staphylococcus aureus [10]: 128 µg/mL (≈ 173 µM); MIC Staphylococcus epidermidis [11]: 16 µg/mL (≈ 21.6 µM); MBC Staphylococcus epidermidis [11]: 16 µg/mL (≈ 21.6 µM); Hemolysis HC10 (MHC), concentration of lipopeptide inducing 10% of hemolysis [12]: 256 µg/mL; MBC Pseudomonas aeruginosa [13]: 512 µg/mL (≈ 692 µM); MBC Proteus vulgaris [14]: >512 µg/mL; MFC Candida albicans, lipopeptides without TFA counter ion [15]: 256 µg/mL (≈ 346 µM)
CCCCCCCCCCCCCC(=O)N[C@@H](CCCCN)C(N)=O [C14-K-NH2]	512 (≈ 1440 µM)	512 (≈ 1440 µM)	32 (≈ 90 µM)	32 (≈ 90 µM)	512 (≈ 1440 µM)	512 (≈ 1440 µM)	512 (≈ 1440 µM)	>512	>512	64 (≈ 180 µM)	64 (≈ 180 µM)	64 (≈ 180 µM)	64 (≈ 180 µM)	128 (≈ 360 µM)	128 (≈ 360 µM)	64 (≈ 180 µM)	128 (≈ 360 µM)	512 (≈ 1440 µM)	64 (≈ 180 µM)	64 (≈ 180 µM)	MBC Klebsiella pneumoniae [7]: 512 µg/mL (≈ 1440 µM); MIC Proteus vulgaris [8]: >512 µg/mL; MIC Pseudomonas aeruginosa [9]: 128 µg/mL (≈ 360 µM); MBC Staphylococcus aureus, lipopeptides without TFA counter ion [10]: 64 µg/mL (≈ 180 µM); MIC Staphylococcus aureus [10]: 64 µg/mL (≈ 180 µM); MIC Staphylococcus aureus, lipopeptides without TFA counter ion [10]: 64 µg/mL (≈ 180 µM); MBC Staphylococcus aureus [10]: 64 µg/mL (≈ 180 µM); MIC Staphylococcus epidermidis [11]: 16 µg/mL (≈ 45 µM); MBC Staphylococcus epidermidis [11]: 16 µg/mL (≈ 45 µM); Hemolysis HC10 (MHC), concentration of lipopeptide inducing 10% of hemolysis [12]: 512 µg/mL; MBC Pseudomonas aeruginosa [13]: 1000 µg/mL (≈ 2810 µM); MBC Proteus vulgaris [14]: >512 µg/mL; MFC Candida albicans, lipopeptides without TFA counter ion [15]: 512 µg/mL (≈ 1440 µM)
